“And” between values parts separate entries of the source, which are not always exact repeats. Equal values may be shown once.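 Values below derive from 48-hour exposures of cells grown in 96-well plates, with endpoints linearly interpolated between the two concentrations bracketing the appropriate inhibition level. Abbreviation: GI50, concentration required for 50% inhibition of growth. TGI: concentration producing complete growth inhibition.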
Legend:
Experiment in all cases: DTP human tumour cell line panel, 48 h
UACC-257 melanoma = tested on: UACC-257 melanoma
EKVX NSCLC = tested on: EKVX NSCLC
COLO 205 colon = tested on: COLO 205 colon
CCRF-CEM leukemia = tested on: CCRF-CEM leukemia
MDA-MB-231 breast = tested on: MDA-MB-231 breast
SK-OV-3 ovarian = tested on: SK-OV-3 ovarian
MCF7 breast = tested on: MCF7 breast
M19-MEL melanoma = tested on: M19-MEL melanoma
XF 498 CNS = tested on: XF 498 CNS
KM20L2 colon = tested on: KM20L2 colon
DMS 273 small cell lung = tested on: DMS 273 small cell lung
DMS 114 small cell lung = tested on: DMS 114 small cell lung
DLD-1 colon = tested on: DLD-1 colon
LXFL 529 NSCLC = tested on: LXFL 529 NSCLC

Row | Compound | TGI (UACC-257 melanoma) | TGI (EKVX NSCLC) | TGI (COLO 205 colon) | TGI (CCRF-CEM leukemia) | TGI (MDA-MB-231 breast) | TGI (SK-OV-3 ovarian) | TGI (MCF7 breast) | TGI (M19-MEL melanoma) | TGI (XF 498 CNS) | TGI (KM20L2 colon) | TGI (DMS 273 small cell lung) | TGI (DMS 114 small cell lung) | TGI (DLD-1 colon) | TGI (LXFL 529 NSCLC) | GI50 (UACC-257 melanoma) | GI50 (EKVX NSCLC) | GI50 (COLO 205 colon) | GI50 (CCRF-CEM leukemia) | GI50 (MCF7 breast)
1 | O=[N+]([O-])c1cc(C2ON=C(c3ccccc3)N2C23CC4CC(CC(C4)C2)C3)ccc1Cl (stereo unspecified) | > 100 µM | > 100 µM | > 100 µM | > 100 µM | > 100 µM | > 100 µM | > 100 µM | – | – | – | – | – | – | – | – | – | – | – | –
2 | Nc1nc(=O)n(C2CC(O)C(CO)O2)c2nc(-c3ccc(-c4ccccc4)cc3)cnc12 (stereo unspecified) | > 100 µM | > 100 µM | > 100 µM | > 100 µM | 50.1 µM | > 100 µM | 54.1 µM | – | – | – | – | – | – | – | – | – | – | – | –
3 | COC(=O)C1=C(C(=O)OC)C2CCC1CC2=O (stereo unspecified) | > 100 µM | > 100 µM | > 100 µM | > 100 µM | > 100 µM | > 100 µM | > 100 µM | – | – | – | – | – | – | – | – | – | – | – | –
4 | CC(C)N=C(NC#N)NS(=O)(=O)c1cnccc1NC1CCCCCCC1 | > 100 µM | > 100 µM | > 100 µM | > 100 µM | > 100 µM | > 100 µM | > 100 µM | – | – | – | – | – | – | – | – | – | – | – | –
5 | COC(=O)/C=C/[C@H]1[C@H](C)N1S(=O)(=O)c1ccc(C)cc1 (stereo partly specified) | > 100 µM | > 100 µM | > 100 µM | > 100 µM | > 100 µM | > 100 µM | > 100 µM | – | – | – | – | – | – | – | – | – | – | – | –
6 | N#C[C@H](c1nc2ccccc2[nH]1)c1nc2ccccc2nc1Cl | > 62.5 µM | 30 µM | 40 µM | 10.9 µM | 35.3 µM | > 100 µM | > 100 µM | – | – | – | – | – | – | – | – | – | – | – | –
7 | Cc1cc(NS(=O)(=O)c2ccc(N=Nc3c(Nc4ccccc4)nn(-c4ccc(S(=O)(=O)Nc5ccncn5)cc4)c3C)cc2)no1 | > 100 µM | > 100 µM | > 100 µM | > 100 µM | > 100 µM | > 100 µM | > 100 µM | – | – | – | – | – | – | – | – | – | – | – | –
8 | CSc1c(C#N)c(=O)n(N)c2n[nH]c(C)c12 | > 100 µM | > 100 µM | > 100 µM | > 100 µM | > 100 µM | > 100 µM | > 100 µM | – | – | – | – | – | – | – | – | – | – | – | –
9 | COc1ccc(-c2nc3ccccc3c(=O)[nH]2)cc1OC | > 100 µM | 53.2 µM | > 100 µM | > 100 µM | 77 µM | > 100 µM | > 100 µM | – | – | – | – | – | – | – | – | – | – | – | –
10 | [B]C(=O)NC(CC(C)C)C(=O)NC1c2ccsc2C(=O)C1O (stereo unspecified) (tested in a mixture with another compound) | > 100 µM | > 100 µM | > 100 µM | > 100 µM | > 100 µM | > 100 µM | > 100 µM | – | – | – | – | – | – | – | – | – | – | – | –
11 | CCCCCCCCC[C@@H]1C[C@H](O)[C@H](Cc2ccccc2)N1C(=O)OC(C)(C)C | 30.6 µM | 33.5 µM | 31.1 µM | 55.9 µM | – | 39 µM | – | 30.9 µM | 37 µM | 34.5 µM | 32.8 µM | 32.4 µM | 33.8 µM | 30.9 µM | – | – | – | – | –
12 | O=C1CN2CCN(CC2)CC(=O)Nc2ccc(cc2)S(=O)(=O)c2ccc(cc2)NC(=O)CN2CCN(CC2)CC(=O)Nc2ccc(cc2)S(=O)(=O)c2ccc(cc2)N1 | > 100 µM | > 100 µM | > 100 µM | 1.81 µM | 43.1 µM | > 100 µM | > 100 µM | – | – | – | – | – | – | – | – | – | – | – | –
13 | CC1(C)C/C=C\CCC(O)C(O)CCC(C)(C)C1=O (stereo unspecified) | > 100 µM | > 100 µM | > 100 µM | > 100 µM | > 100 µM | > 100 µM | > 100 µM | – | – | – | – | – | – | – | – | – | – | – | –
14 | O=C1C=C(NCCc2ccc(O)cc2)C(=O)C=C1NCCc1ccc(O)cc1 | > 100 µM | > 100 µM | > 100 µM | > 100 µM | > 100 µM | > 100 µM | > 100 µM | – | – | – | – | – | – | – | – | – | – | – | –
15 | CC(C)(C)OC(=O)/C=C/[C@@H](CCC(=O)/C=C/[C@H](/C=C\CCCC(=O)O)NC1(c2ccccc2)c2ccccc2-c2ccccc21)O[Si](C)(C)C(C)(C)C | 34.2 µM | 45.9 µM | 59 µM | > 100 µM | 28.4 µM | > 100 µM | 38.7 µM | – | – | – | – | – | – | – | – | – | – | – | –
16 | COc1ccc(OC/C(N=Cc2cccnc2)=N/NC(=O)c2ccncc2)cc1 | > 100 µM | > 100 µM | > 100 µM | > 100 µM | > 100 µM | > 100 µM | > 100 µM | – | – | – | – | – | – | – | – | – | – | – | –
17 | CN1CCN2CCN(C)CCN(CC1)CC2 | > 100 µM | > 100 µM | > 100 µM | > 100 µM | > 100 µM | > 100 µM | > 100 µM | – | – | – | – | – | – | – | – | – | – | – | –
18 | FC1(F)SC2CCCCCCCCCCC2C1(F)F (stereo unspecified) | 69.8 µM | > 100 µM | 34.7 µM | > 100 µM | > 100 µM | > 100 µM | 44.2 µM | – | – | – | – | – | – | – | – | – | – | – | –
19 | COC(=O)/C=C/c1cc(OC)c2c(c1)C(C(=O)OC)C(c1ccc(O)c(OC)c1)O2 (stereo unspecified) | > 100 µM and 63.2 µM | > 100 µM and 57.6 µM | 35.4 µM and 26.4 µM and 25.8 µM | – | > 25.8 µM and 18.8 µM and 42.1 µM | > 100 µM | > 100 µM and > 69.5 µM and 42.9 µM | – | – | – | – | – | – | – | > 25.9 µM and 6.49 µM | > 29.4 µM and 18.5 µM and 3.45 µM | 17 µM and 13.1 µM and 7.32 µM | 3.4 µM and 3.35 µM and 0.699 µM | 1.9 µM and 2.05 µM and 0.69 µM
20 | c1ccc2c[n+](Cc3ccnc4ccccc34)ccc2c1 | > 100 µM | > 100 µM | > 100 µM | > 100 µM | > 100 µM | > 100 µM | > 100 µM | – | – | – | – | – | – | – | – | – | – | – | –
21 | O=C(CN1CCOCC1)c1ccc2c(c1)oc(=O)n2CCN1CCCCC1 | > 100 µM | > 100 µM | > 100 µM | > 100 µM | > 100 µM | > 100 µM | > 100 µM | – | – | – | – | – | – | – | – | – | – | – | –
